Reference: ChEMBL document CHEMBL1201862, “PubChem BioAssay data set” (2004)
The source made the active and inactive calls.

How the values were obtained:
[1] = Luminescence Cell-Based Dose Response HTS to Identify Inhibitors of 5'UTR Stem-Loop Driven Prion Protein mRNA Translation in H4 Neuroglioblastoma Cells. [Related pubchem assays: 1827 (Project Summary), 1813 (Primary HTS)]; type: functional
[2] = cells; type: functional, cell-based
[3] = target: T1, Nuclear receptor subfamily 0 group B member 1 (Homo sapiens, UniProt P51843); type: functional, cell-based;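 note: HEK293T cells transfected with SF-1 and DAX-1 plus StAR promoter luciferase reporter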
T1 sequence (P51843 whole entry): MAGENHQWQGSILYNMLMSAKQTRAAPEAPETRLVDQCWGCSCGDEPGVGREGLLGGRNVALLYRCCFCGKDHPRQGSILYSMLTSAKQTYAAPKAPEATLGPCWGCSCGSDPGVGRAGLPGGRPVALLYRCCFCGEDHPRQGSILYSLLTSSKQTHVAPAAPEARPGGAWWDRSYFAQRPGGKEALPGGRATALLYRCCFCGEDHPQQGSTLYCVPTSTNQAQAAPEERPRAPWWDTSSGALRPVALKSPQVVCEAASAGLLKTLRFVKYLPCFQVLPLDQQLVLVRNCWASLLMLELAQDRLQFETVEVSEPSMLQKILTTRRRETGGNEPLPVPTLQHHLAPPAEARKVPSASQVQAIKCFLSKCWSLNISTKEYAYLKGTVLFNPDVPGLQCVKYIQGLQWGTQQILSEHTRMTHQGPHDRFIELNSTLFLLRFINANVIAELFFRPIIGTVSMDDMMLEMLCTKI

[4] = blockers of bursicon-stimulated LGR2 cAMP reporter – cell-based, HEK293, CRE-luciferase reporter, cherry pick, set 2, dose response (AID 743343); type: functional;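 note: transfected cells were stimulated with diluted bursicon conditioned medium after compound addition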
[5] = blockade of melanocortin 4 receptor signaling – cell-based, plate reader, cherry pick, counter-screen for LGR2 antagonist project, dose response (AID 743444); type: functional;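 note: transfected HEK 293 cells stimulated with alpha-MSH peptide; potency of inhibitors of the alpha-MSH evoked signal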
[6] = HEK-293T viability loss after treatment – luminescence, T-cell screen hits, cytotoxicity control for TCR NF-kB inhibitor project, dose response (AID 489026); type: functional, cell-based;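 note: cells exposed to compound about 14 hours before the viability readout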
[7] = tested on: INS1; experiment: INS-1E survival protection against cytokine death – cell-based, luminescence, retest, dose response (AID 449756); type: functional; details: Rattus norvegicus;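 note: cell death triggered by IL-1 beta plus TNF-alpha plus IFN-gamma mixture; protective hits raise ATP signal compared with cytokine alone wells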
[8] = target: Galanin receptor type 3 (Homo sapiens, UniProt O60755); experiment: Fluorescence-based cell-based primary high throughput dose response assay to identify antagonists of the Galanin Receptor 3 (GalR3).; type: functional
[9] = cells; type: functional, cell-based; details: HEK-CNG
[10] = target: Cytochrome P450 2D6 (Homo sapiens, UniProt P10635);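 note: CYP2D6 member of a cytochrome P450 panel assay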
[11] = target: Cytochrome P450 3A4 (Homo sapiens, UniProt P08684);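 note: CYP3A4 tested as one member of a cytochrome P450 panel screen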
[12] = THP-1 cell cytotoxicity, dose response, cytotoxicity control for non-replicating M. tuberculosis project (AID 489025); type: functional
[13] = HepG2 cell cytotoxicity, dose response, cytotoxicity control for non-replicating M. tuberculosis project (AID 489018); type: functional; details: Mycobacterium tuberculosis
[14] = Vero E6 cell cytotoxicity, dose response, cytotoxicity control for non-replicating M. tuberculosis project, secondary assay (AID 492998); type: functional, VeroE6; details: Vero C1008
[15] = cells; type: functional
[16] = viability loss in HepG2 hepatoma cells – cell-based, ATP luminescence, cherry-pick, activator set 2, cytotoxicity control, dose response (AID 1053143); type: functional
[17] = Trypanosoma cruzi growth suppression in host cells – NIH3T3 host cells, beta-gal luminescence, confirmation (AID 2044); type: functional, cell-based;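 note: intracellular parasites grown in NIH/3T3 mouse fibroblasts as host cells; luminescent beta-galactosidase reporter signal from transgenic T. cruzi replicating inside host cells; inhibitors lower the luminescence signal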
[18] = NIH3T3 cell viability loss – ATP luminescence, mouse fibroblasts, counter-screen, dose response (AID 2010); type: functional, cell-based;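 note: cells exposed to compound for about 90 hours before reading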
[19] = target: SWI/SNF-related matrix-associated actin-dependent regulator of chromatin subfamily A member 2 (Homo sapiens, UniProt P51531); experiment: Luminescence-based cell-based high throughput dose response assay to identify activators of the function of SWI/SNF related, matrix associated, actin dependent regulator of chromatin, subfamily a, member 2 (SMARCA2, BRM).; type: functional
[20] = Counterscreen for activators of the function of SWI/SNF related, matrix associated, actin dependent regulator of chromatin, subfamily a, member 2 (SMARCA2, BRM): Luminescence-based cell-based high throughput dose response assay to identify non-selective compounds using the VP16 reporter assay.; type: functional
[21] = target: Major prion protein (Homo sapiens, UniProt P04156); type: functional, cell-based
[22] = cells
[23] = reduction of Shn3 3'UTR-driven luciferase in osteoblasts – cell-based, Clone20 osteoblasts, firefly luciferase, cherry-picked, dose response (AID 624132); type: functional;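 note: firefly luciferase luminescence from reporter carrying the Shn3 3'UTR in osteoblasts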
[24] = loss of viability in HepG2 cells – cell-based, CellTiter-Glo, cherry-picked, cytotoxicity control for Shn3 inhibitor project, dose response (AID 624134); type: functional
[25] = non-specific 3'UTR reporter inhibition in Clone20-Shn3RL – cell-based, Renilla luciferase, cherry-picked, counter-screen for Shn3 inhibitor project, dose response (AID 624133); type: functional
[26] = target: T2, Oxysterols receptor LXR-beta (Homo sapiens, UniProt P55055); type: functional, cell-based;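 note: agonist activity at LXR measured by a cell-based luminescence readout across a dose range, run as a counterscreen for daf-12 agonists; HEK293 cells with Gal4-LXR fusion and GAL4-driven luciferase reporter; potency for activation of Gal4-LXR reporter so compounds are agonists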
T2 sequence (P55055 whole entry): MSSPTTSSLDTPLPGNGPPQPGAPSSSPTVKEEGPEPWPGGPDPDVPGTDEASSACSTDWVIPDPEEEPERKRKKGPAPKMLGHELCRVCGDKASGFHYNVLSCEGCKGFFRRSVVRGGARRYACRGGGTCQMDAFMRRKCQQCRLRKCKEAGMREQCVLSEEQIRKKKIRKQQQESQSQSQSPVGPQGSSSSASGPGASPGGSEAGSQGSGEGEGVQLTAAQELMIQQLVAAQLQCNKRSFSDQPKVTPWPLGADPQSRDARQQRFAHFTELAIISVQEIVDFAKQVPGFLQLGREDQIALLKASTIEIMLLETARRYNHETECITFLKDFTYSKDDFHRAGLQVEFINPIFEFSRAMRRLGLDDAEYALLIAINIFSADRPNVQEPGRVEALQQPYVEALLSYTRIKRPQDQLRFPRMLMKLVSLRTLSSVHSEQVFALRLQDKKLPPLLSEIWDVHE

[27] = target: Nuclear receptor subfamily 5 group A member 2 (Homo sapiens, UniProt O00482); type: functional, cell-based;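 note: HEK293T cells transfected with LRH-1 and a StAR promoter luciferase reporter; potency for inhibitors that lower LRH-1 driven reporter light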
[28] = target: Steroidogenic factor 1 (Homo sapiens, UniProt Q13285); experiment: Counterscreen for inverse agonists of the liver receptor homolog-1 (LRH-1; NR5A2): Luminescence-based cell-based high throughput dose response assay to identify inverse agonists of the Steroidogenic Factor 1 Nuclear Receptor (SF1; NR5A1).; type: functional
[29] = nonselective StAR promoter luciferase inhibitors – cell-based, luminescence, luciferase reporter, counter-screen for LRH-1 inverse agonist project, dose response (AID 651969); type: functional
[30] = activation of miR-122 Renilla sensor silencing – cell-based, Huh7 psiCHECK-miR122, Renilla luciferase, cherry-picked, dose response (AID 651956); type: functional;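 note: huh7 hepatoma cells stably carrying a psiCHECK-2 miR-122 sensor plasmid; renilla luciferase signal reporting endogenous miR-122 activity after 48 h compound exposure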
[31] = general mammalian cell viability loss – inhibitor set, cherry-pick, set 2, cytotoxicity control for miR-122 modulator project, dose response (AID 720697); type: functional, cell-based
[32] = target: Paired box protein Pax-8 (Homo sapiens, UniProt Q06710); experiment: PAX8 transcriptional activity inhibition in RMG-I – RMG-I cells, luciferase, cherry-pick, dose response (AID 687027); type: functional, cell-based;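 note: luciferase reporter driven by Pax8 target thyroperoxidase promoter measured by SteadyGlo luminescence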
[33] = general cell-killing toxicity readout – plate reader, dry powder samples, cytotoxicity control for PAX8 inhibitor project, dose response (AID 743021); type: functional, cell-based
[34] = luciferase reporter signal suppression in cells – H4 neuroglioma cells, luminescence, dose response (AID 1990); type: functional, cell-based
[35] = luciferase reporter signal reduction – luminescence, H4-C neuroglioblastoma cells, dose response (AID 2458); type: functional, cell-based;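 note: H4 neuroglioblastoma cells stably carrying a luciferase reporter gene fusion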
[36] = cells; type: functional, cell-based; remark: listed apart in the source
[37] = alpha-synuclein stem-loop luciferase translation blockers – H4 neuroglioma cells, luminescence, confirmation (AID 1988); type: functional, cell-based
[38] = alpha-synuclein stem-loop translation blockers – luminescence, H4 neuroglioblastoma cells, dose confirmation, confirmation (AID 2454); type: functional, cell-based;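 note: H4 neuroglioblastoma cells carrying an alpha-synuclein 5'UTR luciferase reporter; potency for inhibition of the luciferase signal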
[39] = rise of 2N DNA cells, HeLa – IC50, dose response (AID 1117349); type: functional, cell-based
[40] = rise of 4N DNA cells, HeLa – IC50, dose response (AID 1117351); type: functional, cell-based

SMILES: O=C(c1cc(-c2ccc(Cl)cc2Cl)on1)N1CCOCC1
- EC50 [1]: > 120 µM (not active)
- IC50 [2]: > 67.5 µM (inactive)
- IC50 [3]: > 67.5 µM (inactive)
- AC50 [4]: 7.17 µM (active)
- AC50 [5]: 7.28 µM (active)

SMILES: CCc1c(C)nc2ncnn2c1NCCc1ccc(OC)cc1
- IC50 [6]: > 80 µM (inactive)
- AC50 [7]: 5.39 µM (active)
- IC50 [8]: 3.2 µM (active)
- EC50 [9]: > 29.9 µM (inactive)
- AC50 [10]: 12.6 µM (inconclusive)
- AC50 [11]: 25.1 µM (inconclusive)

SMILES: Cc1cc(NCc2ccccn2)n2ncc(-c3ccccc3)c2n1
- CC50 [12]: 6.66 µM (active)
- CC50 [13]: 4.11 µM (active)
- CC50 [14]: 11.8 µM (active)
- IC50 [15]: 1.4 µM (active)
- AC50 [16]: 26 µM (active)

SMILES: Cc1cc(NCCN2CCOCC2)c2ccc3ccccc3c2n1
- EC50 [17]: 0.949 µM (active)
- EC50 [18]: > 60 µM (not active)
- EC50 [19]: 25.3 µM (inactive)
- EC50 [20]: > 91.2 µM (inactive)

SMILES: N=C(N)NS(=O)(=O)c1ccc(NC(=S)NC(=O)c2sc3ccccc3c2Cl)cc1
- IC50 [21]: 5.54 µM (active)
- IC50 [22]: > 138 µM (inactive)

SMILES: Cn1nc(C(C)(C)C)cc1C(=O)NCc1ccc2c(c1)OCO2
- AC50 [7]: 3.31 µM (active)
- AC50 [23]: 1.17 µM (active)
- AC50 [24]: 2.31 µM (active)
- AC50 [25]: 1.02 µM (active)
- IC50 [8]: 1.83 µM (active)
- EC50 [9]: > 29.9 µM (inactive)

SMILES: CCc1cc2c(=O)c(-c3ccc4c(c3)OCO4)coc2c(CN(C)C)c1O
- IC50 [21]: 2.07 µM (active)
- IC50 [22]: > 138 µM (inactive)

SMILES: S=C(c1ccc(-c2ccc(Cl)cc2)o1)N1CCCCC1
- EC50 [26]: > 67.5 µM (inactive)

SMILES: CC1=CC(O)C(O)C2(C)C1CC1OC(=O)CC3C(C)C(O)C(=O)C2C13CO (stereo unspecified)
- IC50 [27]: 6.91 µM (active)
- IC50 [28]: 4.96 µM (active)
- IC50 [29]: 17.7 µM (inactive)

SMILES: COc1ccccc1CNc1nc(NCC2CC2)nc2ccsc12
- AC50 [23]: 4.16 µM (active)
- AC50 [24]: 39.9 µM (active)
- AC50 [25]: 6.69 µM (active)
- AC50 [30]: 29.6 µM (active)
- AC50 [31]: 6.06 µM (active)

SMILES: CC(C)C#Cc1ccc2c(c1)O[C@H](CN(C)C(=O)c1ccncc1)[C@@H](C)CN([C@@H](C)CO)S2(=O)=O
- AC50 [30]: 11.6 µM (active)
- AC50 [31]: 0.461 µM (active)

SMILES: Cc1ccc(S(=O)(=O)N(C)C[C@H]2Oc3ccc(NS(=O)(=O)c4ccc(F)cc4)cc3CC(=O)N([C@H](C)CO)C[C@H]2C)cc1
- AC50 [32]: 21.5 µM (active)
- AC50 [33]: 52.8 µM (active)

SMILES: O=C(Cc1ccc(-c2ccccc2)cc1)Nc1ccccn1 [DIFENPIRAMIDE]
- EC50 [19]: > 91.2 µM (inactive)
- EC50 [20]: > 91.2 µM (inactive)

SMILES: COc1cc([C@@H]2c3cc4c(cc3[C@H](O)[C@H]3COC(=O)[C@H]23)OCO4)cc(OC)c1OC [PODOFILOX]
- EC50 [34]: < 0.1 µM (active)
- EC50 [35]: 0.015 µM (active)
- EC50 [36]: 0.014 µM (active)
- EC50 [37]: < 0.1 µM (active)
- EC50 [38]: 0.008 µM (active)
- IC50 [6]: > 80 µM (inactive)
- IC50 [2]: > 67.5 µM (inactive)
- IC50 [3]: 2.15 µM (active)
- AC50 [32]: < 0.26 µM (active)
- IC50 [39]: 0.0089 µM (active)
- IC50 [40]: 0.0077 µM (active)
